In patent publication US6048887A, “Substituted pyrroles” (Hoffmann-La Roche Inc., priority 1999, dated 2000):

Key:
Format in all cases: cell-based
[1] = tested on: MDA-MB-435; assay: Antiproliferative Activity In Cell Line MDA-MB-435 (MTT); details: Homo sapiens, average of at least three separate experiments
Description: (§1) The estrogen receptor negative epithelial breast carcinoma line (MDA-MB-435) was purchased from American Type Cell Culture Collection (ATCC; Rockville, Md.) and was grown in the medium recommended by ATCC. For analysis of the effect of the test compounds on growth of these cells, the cells were plated at 2000 cells per well in a 96-well tissue culture plate ("test plate"), and were incubated overnight at 37° C. with 5% CO2. The next day, the test compounds were dissolved in 100% dimethyl sulfoxide (DMSO) to yield a 10 mM stock solution. Each compound was diluted with sterile distilled water to 1 mM and then was added to triplicate wells of a 96-well "master plate" containing medium in a sufficient quantity to yield a final concentration of 40 μM. The compounds were serially diluted in medium in the "master plate." One-fourth final volume of the diluted compounds was transferred to duplicate "test plates." DMSO was added to a row of "control cells" such that; the final concentration of DMSO in each well was 0.1%. The "test plates" were returned to the incubator, and 3 days post addition of test compound, one "test plate" was analyzed as described below. Similarly, 5 days after addition of test compound, the second "test plate" also was analyzed as described below.
(§2) 3-(4,5-dimethylthiazole-2-yl)-2,5-diphenyl-2H-tetrazolium bromide (thiazolyl blue; MTT) was added to each well to yield a final concentration of 1 mg/ml. The plate was then incubated at 37° C. for 3 hours. The MTT-containing medium was then removed and 50 μl 100% ethanol was added to each well to dissolve the resulting formazan metabolite. […] Absorbencies were read in a microtiter plate reader (Molecular Dynamics) at a wavelength of 570 nm with a 650 nm reference. Percent inhibition was calculated by subtracting the blank from all wells, then subtracting the division of the average absorbance of each test triplicate by the average of the controls from 1.00. Inhibitory concentrations (IC50 and IC90) were determined from the linear regression of a plot of the logarithm of the concentration versus the percent inhibition.

[2] = tested on: HCT-116; assay: Antiproliferative Activity In Cell Line HCT-116 (MTT); details: Homo sapiens, 96 h, 4 days post addition, average of at least three separate experiments
Description: [The procedure below names another cell line; the source says it served here with some conditions changed.] as §1
as §2, with “inhibition. […]” for “inhibition.”

[3] = tested on: SW480; assay: Antiproliferative Activity In Cell Line SW480 (MTT); details: Homo sapiens, 144 h, 6 days post addition, average of at least three separate experiments
Description: [The procedure below names another cell line; the source says it served here with some conditions changed.] as §1
as §2, with “inhibition. […]” for “inhibition.”

[4] = tested on: MDA-MB-435 cells; assay: Effect Of Test Compounds On Cell Cycle (propidium iodide, FACS); details: for % Of Cells In Each Cell Cycle Phase: G1 / % Of Cells In Each Cell Cycle Phase: G2/M / % Of Cells In Each Cell Cycle Phase: S: day 1 post addition; for effect on cell cycle (in words): statement in words, summarizing Tables I-IV
Description: For analysis of the effect of the compounds on cell cycle progression, MDA-MB-435 cells (ATCC; Rockville, Md.) were plated at 1×10^6 cells/10 mls per 10 cm dish in the following growth medium: RPMI 1640+10% Heat-Inactivated Fetal Bovine Serum, 2 mM L-glutamine and 50 U/ml pen-strep (all from GIBCO/BRL, Gaithersburg, Md.). The cells were incubated overnight at 37° C. with 5% CO2. The next day, 10 μl of each of the compounds to be tested, in a 100% DMSO solution, was added to individual dishes to obtain /1000× final concentration of the stock solution. In addition, 10 μl 100% DMSO was added to a control dish. The final concentration of DMSO in all plates, including the control, was 0.1%. The plates were returned to the incubator.
Thereafter, at various periods of time, the medium in each plate was removed to a 50 ml centrifuge tube. The cell layer remaining in the dish was then washed with 5 ml of phosphate buffered saline (PBS; GIBCO/BRL). The PBS was removed and combined with the medium in the appropriate tube. The cells were trypsinized for 5 minutes at 37° C., and the solution was collected and combined with the medium and PBS in the appropriate tubes. The tubes were then centrifuged for 5 minutes at 1200 rpm. The cells were fixed by removing the supernatant, tapping the tube to distribute the pellet, then adding 5 mls of cold 70% ethanol while vortexing gently. The cells were then stored at -20° C. for>24 hours.
The cell-containing tubes were taken out of freezer and allowed to sit at room temperature for 20-30 minutes. The tubes were centrifuged at 3000 rpm for 5 minutes. The supernatant was removed, the pellets were washed with 5 ml PBS, and the tubes were centrifuged as above. Subsequently, the supernatant was removed, and the pellet was resuspended in 0.5 ml PBS. Thereafter, 0.5 ml RNAse A (1 mg/ml in PBS) was added to each tube, and the tubes were incubated at 37° C. for 15 minutes. 100 μl propidium iodide (Sigma, St. Louis, Mo.) (1 mg/ml in PBS) was added to each tube, and the tubes were then incubated at room temperature for 2-3 minutes. Each resulting solution was passed through a filter cap tube (Becton Dickinson, San Jose, Calif., #2235).
Samples were read in a FACSort machine (Becton-Dickinson) using the manufacturer's CellQUEST program, and analyzed with the manufacturer is ModFIT software. This measurement provides an indication of the percent of cells in each of the following phases: G0/G1, DNA synthesis (S) and G2/M phases.
The results of a cell cycle progression experiment analyzed at day 1 post addition of test compounds I, II and III are summarized below in Table IV.

Compound	IC50 [1] [nM]	IC50 [2] [nM]	IC50 [3] [nM]	% Of Cells In Each Cell Cycle Phase: G1 ([4]; 0.03 μM) [%]	% Of Cells In Each Cell Cycle Phase: G2/M ([4]; 0.03 μM) [%]	% Of Cells In Each Cell Cycle Phase: S ([4]; 0.03 μM) [%]	% Of Cells In Each Cell Cycle Phase: G1 ([4]; 0.1 μM) [%]	% Of Cells In Each Cell Cycle Phase: G2/M ([4]; 0.1 μM) [%]	% Of Cells In Each Cell Cycle Phase: S ([4]; 0.1 μM) [%]	effect on cell cycle (in words) [4]	other results
Cn1cc(C2=C(c3c[nH]c4ccccc34)C(=O)NC2=O)c2ccc([N+](=O)[O-])cc21 [Compound I, 3-(1H-Indol-3-yl)-4-(1-methyl-6-nitro-1H-indol-3-yl)-pyrrole-2,5-dione]	30	170	200	45.30	20.03	34.67	8.27	66.52	25.21	cause an accumulation of cells in the G2/m phase of the cell cycle	% Of Cells In Each Cell Cycle Phase: G1 ([4]; 0.01 μM): 44.95%; % Of Cells In Each Cell Cycle Phase: G2/M ([4]; 0.01 μM): 14.00%; % Of Cells In Each Cell Cycle Phase: S ([4]; 0.01 μM): 41.04%
Cn1cc(C2=C(c3cn(CO)c4ccccc34)C(=O)NC2=O)c2ccc([N+](=O)[O-])cc21 [Compound II, 3-(1-Hydroxymethyl-1H-indol-3-yl)-4-(1-methyl-6-nitro-1H-indol-3-yl)-pyrrole-2,5-dione]	50	230	220	45.45	16.50	38.06	15.54	60.40	24.06	cause an accumulation of cells in the G2/m phase of the cell cycle	% Of Cells In Each Cell Cycle Phase: G1 ([4]; 0.3 μM): 1.11%; % Of Cells In Each Cell Cycle Phase: G2/M ([4]; 0.3 μM): 73.90%; % Of Cells In Each Cell Cycle Phase: S ([4]; 0.3 μM): 24.99%
Cn1cc(C2=C(c3c[nH]c4cc([N+](=O)[O-])ccc34)C(=O)NC2=O)c2ccccc21 [Compound III, 3-(1-Methyl-1H-indol-3-yl)-4-(6-nitro-1H-indol-3-yl)-pyrrole-2,5-dione]	600	1660	1860							cause an accumulation of cells in the G2/m phase of the cell cycle	% Of Cells In Each Cell Cycle Phase: G1 ([4]; 1 μM): 27.21%; % Of Cells In Each Cell Cycle Phase: G2/M ([4]; 1 μM): 42.60%; % Of Cells In Each Cell Cycle Phase: S ([4]; 1 μM): 30.19%; % Of Cells In Each Cell Cycle Phase: G1 ([4]; 3 μM): 3.26%; % Of Cells In Each Cell Cycle Phase: G2/M ([4]; 3 μM): 47.99%; % Of Cells In Each Cell Cycle Phase: S ([4]; 3 μM): 48.75%; % Of Cells In Each Cell Cycle Phase: G1 ([4]; 10 μM): 10.41%; % Of Cells In Each Cell Cycle Phase: G2/M ([4]; 10 μM): 54.34%; % Of Cells In Each Cell Cycle Phase: S ([4]; 10 μM): 35.25%
